The target of one test is T1, Progesterone receptor (Homo sapiens, UniProt P06401).
T1 sequence (P06401 whole entry): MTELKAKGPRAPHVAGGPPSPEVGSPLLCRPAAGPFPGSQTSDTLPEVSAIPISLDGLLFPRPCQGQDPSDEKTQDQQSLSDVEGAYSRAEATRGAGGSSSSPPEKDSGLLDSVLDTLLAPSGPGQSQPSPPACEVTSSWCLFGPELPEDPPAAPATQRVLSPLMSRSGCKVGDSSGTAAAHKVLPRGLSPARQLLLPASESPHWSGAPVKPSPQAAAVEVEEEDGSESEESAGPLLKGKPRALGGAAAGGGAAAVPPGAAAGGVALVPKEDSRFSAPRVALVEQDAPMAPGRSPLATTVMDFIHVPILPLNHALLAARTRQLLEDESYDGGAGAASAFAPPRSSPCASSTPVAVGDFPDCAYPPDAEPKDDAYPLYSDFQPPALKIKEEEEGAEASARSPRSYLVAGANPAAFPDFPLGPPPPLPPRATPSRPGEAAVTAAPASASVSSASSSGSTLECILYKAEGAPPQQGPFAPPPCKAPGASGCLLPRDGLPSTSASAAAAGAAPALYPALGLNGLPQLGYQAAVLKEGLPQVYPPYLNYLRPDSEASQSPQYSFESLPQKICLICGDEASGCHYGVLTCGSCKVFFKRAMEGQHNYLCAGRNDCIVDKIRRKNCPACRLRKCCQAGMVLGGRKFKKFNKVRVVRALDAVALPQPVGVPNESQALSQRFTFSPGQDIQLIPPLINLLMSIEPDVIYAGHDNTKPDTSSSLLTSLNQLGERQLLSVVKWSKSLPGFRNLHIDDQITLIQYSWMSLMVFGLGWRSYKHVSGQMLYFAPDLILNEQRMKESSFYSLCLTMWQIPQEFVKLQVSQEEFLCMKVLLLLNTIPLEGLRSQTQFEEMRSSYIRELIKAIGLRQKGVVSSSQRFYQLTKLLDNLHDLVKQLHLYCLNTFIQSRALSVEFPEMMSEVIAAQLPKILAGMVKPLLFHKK
Format: functional.

For a further test, the target named is Histamine H2 receptor (Homo sapiens, UniProt P25021). Type of test: functional, cell-based.
Test [1] deals with T2, 5-hydroxytryptamine receptor 3A (Homo sapiens, UniProt P46098).
T2 sequence (P46098 whole entry): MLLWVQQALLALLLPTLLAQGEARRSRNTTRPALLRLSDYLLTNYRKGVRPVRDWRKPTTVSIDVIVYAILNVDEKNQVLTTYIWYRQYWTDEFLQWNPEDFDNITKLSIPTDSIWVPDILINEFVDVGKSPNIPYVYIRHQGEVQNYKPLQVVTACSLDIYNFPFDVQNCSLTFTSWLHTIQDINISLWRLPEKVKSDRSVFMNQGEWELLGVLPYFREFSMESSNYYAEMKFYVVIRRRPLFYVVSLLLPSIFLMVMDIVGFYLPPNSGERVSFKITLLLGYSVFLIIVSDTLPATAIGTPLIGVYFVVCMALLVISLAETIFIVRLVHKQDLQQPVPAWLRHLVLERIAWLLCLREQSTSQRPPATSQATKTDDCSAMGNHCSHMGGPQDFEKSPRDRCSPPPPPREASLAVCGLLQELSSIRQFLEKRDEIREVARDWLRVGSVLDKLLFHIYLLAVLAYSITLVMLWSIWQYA
Type of test: functional.

A further test addresses Vasopressin V2 receptor (Homo sapiens, UniProt P30518).
The target of a further test is D(1A) dopamine receptor (Homo sapiens, UniProt P21728). Format: functional, cell-based.
The target of test [2] is 3',5'-cyclic-AMP phosphodiesterase 4D (Homo sapiens, UniProt Q08499). Format: functional.
For test [3], the target named is T3, Alpha-1A adrenergic receptor (Homo sapiens, UniProt P35348).
T3 sequence (P35348 whole entry): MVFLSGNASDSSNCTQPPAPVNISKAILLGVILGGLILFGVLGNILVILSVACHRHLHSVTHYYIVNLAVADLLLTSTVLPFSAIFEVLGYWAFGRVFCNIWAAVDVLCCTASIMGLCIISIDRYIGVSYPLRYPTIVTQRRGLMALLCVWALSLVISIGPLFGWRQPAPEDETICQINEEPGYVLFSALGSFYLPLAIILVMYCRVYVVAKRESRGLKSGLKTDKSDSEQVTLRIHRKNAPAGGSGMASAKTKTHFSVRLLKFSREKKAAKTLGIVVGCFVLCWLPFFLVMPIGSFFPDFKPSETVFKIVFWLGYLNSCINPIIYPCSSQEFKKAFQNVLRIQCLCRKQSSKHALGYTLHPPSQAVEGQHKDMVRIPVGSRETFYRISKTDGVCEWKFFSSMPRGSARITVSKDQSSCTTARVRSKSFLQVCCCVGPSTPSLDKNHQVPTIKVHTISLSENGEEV
Type of test: functional, cell-based.

Test [4] addresses T4, Prostaglandin G/H synthase 1 (Rattus norvegicus, UniProt Q63921).
T4 sequence (Q63921 whole entry): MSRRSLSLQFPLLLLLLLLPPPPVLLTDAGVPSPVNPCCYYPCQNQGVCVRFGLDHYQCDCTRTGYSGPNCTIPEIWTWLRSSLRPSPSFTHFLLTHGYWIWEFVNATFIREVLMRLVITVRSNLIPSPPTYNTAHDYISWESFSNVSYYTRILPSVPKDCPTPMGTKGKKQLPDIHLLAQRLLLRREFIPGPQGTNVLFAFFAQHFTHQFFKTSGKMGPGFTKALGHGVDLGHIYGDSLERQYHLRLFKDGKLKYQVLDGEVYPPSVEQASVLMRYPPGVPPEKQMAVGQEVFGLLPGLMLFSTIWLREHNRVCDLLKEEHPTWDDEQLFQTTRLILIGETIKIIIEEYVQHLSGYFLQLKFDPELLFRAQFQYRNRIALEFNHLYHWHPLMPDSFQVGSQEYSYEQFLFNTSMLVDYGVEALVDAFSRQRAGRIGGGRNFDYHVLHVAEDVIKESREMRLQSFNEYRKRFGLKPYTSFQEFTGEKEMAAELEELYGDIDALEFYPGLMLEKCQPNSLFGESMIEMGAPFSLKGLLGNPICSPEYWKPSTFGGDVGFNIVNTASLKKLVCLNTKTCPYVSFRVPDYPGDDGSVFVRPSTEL
Type of test: functional.

Test [5] concerns the target Sodium-dependent dopamine transporter (Homo sapiens, UniProt Q01959).
Note: assay procedure not described here.

Chain of 3',5'-cyclic-AMP phosphodiesterase 4D (Q08499 whole entry): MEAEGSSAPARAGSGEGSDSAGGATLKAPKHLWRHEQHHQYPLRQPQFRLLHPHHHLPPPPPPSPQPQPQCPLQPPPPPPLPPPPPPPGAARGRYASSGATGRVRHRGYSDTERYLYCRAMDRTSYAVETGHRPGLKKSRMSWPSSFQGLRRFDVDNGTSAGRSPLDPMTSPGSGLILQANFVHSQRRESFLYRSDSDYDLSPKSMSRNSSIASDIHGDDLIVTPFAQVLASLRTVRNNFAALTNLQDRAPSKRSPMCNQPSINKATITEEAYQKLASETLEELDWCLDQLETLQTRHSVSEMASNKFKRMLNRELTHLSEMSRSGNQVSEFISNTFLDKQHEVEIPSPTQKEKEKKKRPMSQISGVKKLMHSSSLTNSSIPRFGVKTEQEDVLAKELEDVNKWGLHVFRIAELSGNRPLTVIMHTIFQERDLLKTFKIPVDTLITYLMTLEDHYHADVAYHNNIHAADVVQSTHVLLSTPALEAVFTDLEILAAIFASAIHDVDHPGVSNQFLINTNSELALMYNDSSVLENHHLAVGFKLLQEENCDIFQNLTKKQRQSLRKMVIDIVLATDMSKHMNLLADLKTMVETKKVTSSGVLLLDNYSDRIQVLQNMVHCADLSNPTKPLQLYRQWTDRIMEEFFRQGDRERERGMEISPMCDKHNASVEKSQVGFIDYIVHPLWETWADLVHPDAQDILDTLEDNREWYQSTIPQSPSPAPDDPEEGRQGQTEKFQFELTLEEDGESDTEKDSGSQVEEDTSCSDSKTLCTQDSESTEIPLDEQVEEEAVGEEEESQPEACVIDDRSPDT
Chain of Histamine H2 receptor (P25021 whole entry): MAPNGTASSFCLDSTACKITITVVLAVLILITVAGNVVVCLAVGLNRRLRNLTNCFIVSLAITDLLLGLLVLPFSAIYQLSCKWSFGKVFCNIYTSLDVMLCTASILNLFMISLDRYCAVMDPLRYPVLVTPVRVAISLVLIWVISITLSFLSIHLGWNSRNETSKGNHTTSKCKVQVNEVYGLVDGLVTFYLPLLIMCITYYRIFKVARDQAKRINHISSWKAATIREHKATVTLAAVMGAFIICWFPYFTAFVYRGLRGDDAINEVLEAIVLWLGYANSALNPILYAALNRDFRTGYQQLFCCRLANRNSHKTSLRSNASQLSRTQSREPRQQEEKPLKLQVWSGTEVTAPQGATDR
Chain of Vasopressin V2 receptor (P30518 whole entry): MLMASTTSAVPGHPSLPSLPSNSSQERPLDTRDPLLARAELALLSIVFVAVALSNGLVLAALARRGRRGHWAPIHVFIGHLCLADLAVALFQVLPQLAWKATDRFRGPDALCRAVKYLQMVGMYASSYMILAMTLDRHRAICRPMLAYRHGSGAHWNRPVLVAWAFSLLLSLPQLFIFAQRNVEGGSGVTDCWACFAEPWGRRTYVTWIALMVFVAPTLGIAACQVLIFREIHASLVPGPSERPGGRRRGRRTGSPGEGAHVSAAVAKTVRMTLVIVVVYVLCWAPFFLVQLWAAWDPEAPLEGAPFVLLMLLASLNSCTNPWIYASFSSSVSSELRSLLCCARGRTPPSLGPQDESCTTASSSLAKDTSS
Chain of D(1A) dopamine receptor (P21728 whole entry): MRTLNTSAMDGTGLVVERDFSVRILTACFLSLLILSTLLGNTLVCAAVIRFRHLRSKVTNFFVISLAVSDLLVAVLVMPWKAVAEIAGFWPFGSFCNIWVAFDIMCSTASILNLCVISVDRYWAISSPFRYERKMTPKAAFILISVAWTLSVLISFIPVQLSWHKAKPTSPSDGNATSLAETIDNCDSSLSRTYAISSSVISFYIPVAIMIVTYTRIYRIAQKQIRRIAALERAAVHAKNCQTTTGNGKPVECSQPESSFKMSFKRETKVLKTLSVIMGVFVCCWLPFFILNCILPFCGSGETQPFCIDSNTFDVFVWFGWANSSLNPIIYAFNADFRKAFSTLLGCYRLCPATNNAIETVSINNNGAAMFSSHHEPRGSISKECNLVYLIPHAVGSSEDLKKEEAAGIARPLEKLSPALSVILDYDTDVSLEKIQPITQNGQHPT
Chain of Sodium-dependent dopamine transporter (Q01959 whole entry): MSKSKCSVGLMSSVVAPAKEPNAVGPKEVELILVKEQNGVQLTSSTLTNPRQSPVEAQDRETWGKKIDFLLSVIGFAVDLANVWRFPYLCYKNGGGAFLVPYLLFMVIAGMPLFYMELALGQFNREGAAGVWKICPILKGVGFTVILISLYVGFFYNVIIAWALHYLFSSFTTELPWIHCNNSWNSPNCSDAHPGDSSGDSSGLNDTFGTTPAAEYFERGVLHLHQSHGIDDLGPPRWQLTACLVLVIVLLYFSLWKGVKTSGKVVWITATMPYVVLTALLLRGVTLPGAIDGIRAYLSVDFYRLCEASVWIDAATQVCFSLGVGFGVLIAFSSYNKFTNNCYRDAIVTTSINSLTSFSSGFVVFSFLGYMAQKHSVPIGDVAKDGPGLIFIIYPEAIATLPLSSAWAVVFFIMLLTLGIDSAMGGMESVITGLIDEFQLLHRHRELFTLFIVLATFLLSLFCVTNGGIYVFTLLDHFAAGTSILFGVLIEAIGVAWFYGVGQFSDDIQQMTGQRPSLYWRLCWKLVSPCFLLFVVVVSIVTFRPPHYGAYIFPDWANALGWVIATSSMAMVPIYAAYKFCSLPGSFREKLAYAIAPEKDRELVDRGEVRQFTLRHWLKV

As for `CCN(CC)C(=O)Nc1ccc(OCC(O)CNC(C)(C)C)c(C(C)=O)c1` (stereo not drawn) [CELIPROLOL], the AC50 (on Progesterone receptor; at Histamine H2 receptor; in [1]; on Vasopressin V2 receptor; at D(1A) dopamine receptor; in test [2]) was more than 30 µM in each case. The AC50 in test [3], in test [4] and in test [5] was more than 30 µM throughout.
`COc1ccc(-c2noc(CC(=O)O)c2-c2ccc(OC)cc2)cc1` [MOFEZOLAC]: the AC50 (on Progesterone receptor; on Histamine H2 receptor; in [1]; on Vasopressin V2 receptor; at D(1A) dopamine receptor; in test [2]) was more than 30 µM each time. The half-maximal activity concentration (AC50) (as a rule, the concentration giving half of the maximal activity seen) in test [3] is more than 30 µM; in test [4] it was 0.037 µM; in test [5], more than 30 µM.
As for `CC(=O)O[C@H](CC(=O)[O-])C[N+](C)(C)C` [ACETYLCARNITINE], the AC50 (on Progesterone receptor; on Histamine H2 receptor; in test [1]; on Vasopressin V2 receptor; at D(1A) dopamine receptor; in test [2]) was more than 30 µM each time. The AC50 in test [3] was more than 30 µM; in [4], more than 10 µM; in test [5], more than 30 µM.
As to `O=C1CN=C(c2ccccn2)c2cc(Br)ccc2N1` [BROMAZEPAM], the concentration at half-maximal activity (AC50) at Progesterone receptor was more than 10 µM; on Histamine H2 receptor it was more than 10 µM; in test [1] it was more than 30 µM; on Vasopressin V2 receptor, more than 10 µM; at D(1A) dopamine receptor, more than 10 µM; in test [2], more than 30 µM. In addition, the AC50 in test [3] was 11 µM; in test [4] it was more than 10 µM; in test [5] it was more than 10 µM.
Take `CC1=C(C)C(=O)C(C(CCCCCC(=O)O)c2ccccc2)=C(C)C1=O` (stereo not drawn) [SERATRODAST]: the AC50 was more than 30 µM at Progesterone receptor; more than 30 µM on Histamine H2 receptor; more than 30 µM in [1]; more than 30 µM on Vasopressin V2 receptor; more than 30 µM on D(1A) dopamine receptor; 22 µM in [2]. Also, the values for the half-maximal activity concentration (AC50) in test [3], in test [4] and in [5] were more than 30 µM, 1.14 µM and more than 30 µM, respectively.
`NC(=O)CN1CCCC1=O`: the AC50 (on Progesterone receptor; at Histamine H2 receptor; in test [1]; at Vasopressin V2 receptor; at D(1A) dopamine receptor; in [2]) was more than 30 µM throughout. Further, the half-maximal activity concentration (AC50) in [3], in [4] and in test [5] was more than 30 µM each time.
On to `C=C1/C(=C\C=C2/CCC[C@]3(C)[C@@H]([C@H](C)/C=C/[C@@H](O)C4CC4)CC[C@@H]23)C[C@@H](O)C[C@@H]1O` [CALCIPOTRIENE], for which the half-maximal activity concentration (AC50) at Progesterone receptor was 20 µM; on Histamine H2 receptor, more than 30 µM; in test [1], more than 30 µM; on Vasopressin V2 receptor it was more than 30 µM; on D(1A) dopamine receptor it was more than 30 µM; in [2] it was more than 30 µM. Besides, the results for the AC50 in [3], in [4] and in test [5] were more than 30 µM, 2.2 µM and more than 30 µM, respectively.

The values above are taken from ChEMBL document CHEMBL5291721, “A preclinical secondary pharmacology resource illuminates target-adverse drug reaction associations of marketed drugs” (Nat Commun, 2023).
